# Test results published in patent US7645740B2, “Peptide sequence found in Laminin 5 for treating skin impairments” (Laboratoires d'Anjou Centre National de la Recherche …, priority 2004, dated 2010).
# Assays:
# [1] = test system: HBL100 cells (human mammary epithelium); assay: Cell adhesion test to immobilized peptides, HBL100; assay type: cell-based; conditions: HBL100, 0 to 10 micrograms immobilized peptide, 8×10^4 cells per well, 1 hour 37° C., absorbance 570 nm
# Protocol: (§1) Dose-dependent cell adhesion of cell line HBL100 to various peptides 1, 2 and 3. The peptides were immobilized in 96-well plates at the concentrations given on the abscissa. 8×10^4 cells were deposited in each well and plates were incubated at 37° C. for 1 hour. After washing, attached cells were fixed and cell adhesion was measured as described in the methodology section.
# (§2) Peptides 1, 2 and 3 were used for the cell adhesion experiments. A range of 7 decreasing concentrations (100 micrograms/ml, 50 micrograms/ml, 25 micrograms/ml, 12.5 micrograms/ml, 6.25 micrograms/ml, 3.125 micrograms/ml and 1.562 micrograms/ml) was made up by successive dilution in PBS (Phosphate Buffer Saline, KH2PO4 1.54 mM; Na2HPO4 1.42 mM; NaCl-131 mM) using a starting solution at a concentration of 1 mg/ml. These solutions were immediately distributed onto a 96-well culture plate (Greinher, Dutscher, Brumath, France) at a rate of 100 μl per well. Plates were then placed at +4° C. for 16 to 18 hours. The solutions were then removed by turning the plates and each well was saturated with a 1% PBS-BSA solution (bovine serum albumin). Three additional wells without the substrate underwent the same treatment and were used as blanks.
# (§3) Epithelial cells were detached from the culture dishes using a trypsin/EDAT solution (0.05-0.02%) then suspended in DMEM medium without additives for the cell lines and in KBM-2 without additive for human keratinocytes. The number of seeded cells per well is given in the graphs (50,000 to 100,000 cells per well).
# (§4) After cell seeding, the multi-well plates were placed in an incubator at 37° C. under 5% CO2. After incubation for 30 to 60 minutes, cells were observed under a phase contrast microscope in order to verify that the test was conducted correctly. The adhesion medium was then removed and each well was washed in a sterile PBS solution to remove non-adhering cells. The remaining cells, attached to the substrate, were then fixed using a solution of 1% glutaraldehyde in PBS for 15 minutes. The glutaraldehyde solution as removed and the cells were stained with a crystal violet solution diluted to 1% in distilled water for 30 minutes.
# (§5) After rinsing in water several times, cells were permeabilized by means of a 0.02% triton solution for 15 minutes in order to solubilize the crystal violet. Absorbances were read at 570 nm using an ELISA plate reader (MR500, Dynatech, Guernsey, Channel Islands). Each experimental point was carried out in triplicate. The blank value represented the mean absorbance of 3 control wells (BSA). This was subtracted from each of the optical density values for the experimental points. We then calculated the mean for the three absorbance values for each of the triplicate samples.
# (§6) The results are presented in the form of a graph with the absorbance values on the ordinate and the various substrate concentrations on the abscissa. Attached cells were photographed by phase contrast microscopy.
# (§7) The following cells from epithelial cell lines were used initially (commonly used in preliminary studies on cell adhesion): • line HT1080 cells (human fibrosarcoma), American Type Culture Collection CCL-121. • line HB100 cells (human mammary epithelium), American Type Culture Collection HTB-124. • line A431 cells (skin epitheliods), American Type Culture Collection CRL-1555.
# [2] = test system: HT1080 cells (human fibrosarcoma); assay: Cell adhesion test to immobilized peptides, HT1080; assay type: cell-based; conditions: HT1080, 0 to 10 micrograms immobilized peptide, 8×10^4 cells per well, 1 hour 37° C., absorbance 570 nm
# Protocol: as §1, with “HT1080” for “HBL100”
# Dose-dependent cell adhesion of HT1080 cells to various peptide TALRIRATYGEY (SEQ ID NO. 1). The peptides were immobilized in 96-well plates in the quantities given on the abscissa. 8×10^4 cells and 15×10^4 cells were deposited in each well and plates were incubated at 37° C. for 1 hour. After washing, attached cells were fixed and cell adhesion was measured as described in the methodology section. Cells were observed by phase contrast microscopy then photographed. Bar =50 μm
# as §2, §3, §4
# as §5, with “This was subtracted from each of the optical density values for the experimental points.” left out
# The results are presented in the form of a graph with the absorbance values on the ordinate and the various substrate concentrations on the abscissa. […]
# A second approach was taken in order to determine the minimum quantity of active peptide and the number of adhering cells was increased in order to obtain a confluent cell network. […]
# [3] = test system: normal human keratinocytes; assay: Cell adhesion test to immobilized peptides, normal human keratinocytes; assay type: cell-based; conditions: 0 to 10 micrograms immobilized peptide, 10^5 cells per well, 1 hour 37° C., absorbance 570 nm
# Protocol: as §1, with “normal human keratinocytes” for “cell line HBL100”, “10^5” for “8×10^4”
# as §2, §3, §4, §5, §6
# Freshly isolated normal human keratinocytes were used in a second experiment. As the basal keratinocytes of the epidermis are in direct contact with LN-5 in the skin, it was necessary to test their adhesion capacity to the peptide in question. Human keratinocytes were obtained from a foreskin biopsy (surgery waste, Pavillon T-Bis, Eduard Herriot Hospital). […]
# NHKs [4] = assay: Cell adhesion of NHKs to peptides co-immobilized with laminin 5; assay type: cell-based, human; conditions: laminin 5 fixed quantity 0.2 mg, 50,000 cells per well, percentage of LN5 alone
# Protocol: Peptides 1, 2 and 3 (variable quantities indicated) and laminin 5 (fixed quantity 0.2 mg) were co-immobilized in 96-well plates. 5×104 NHKs were deposited in each well and plates were incubated at 37° C. for 1 hour. After washing, attached cells were fixed and cell adhesion was measured as described in the methodology section. Cell adhesion in the presence of the peptide is given as a percentage of cell adhesion obtained with laminin 5 alone. Cells were observed by phase contrast microscopy then photographed. Bar=50 μm.
# (§8) A decreasing range of LN5 (prepared in the laboratory) and COL4 (BD Biosciences, Le Pont de Claix, France) quantities was made up by successive dilution in PBS. These solutions were immediately distributed into a 96-well culture plate (Costar) at a rate of 100 μl per well. The experiment was conducted in exactly the same way as the experiment described in example 2. The results are given in the form of a graph with the absorbance values representing adhesion on the ordinate and the various substrate concentrations on the abscissa. Attached cells were photographed by phase contrast microscopy.
# In order to analyse the effect of the peptide on cell adhesion to DEJ proteins, peptide TALRIRATYGEY (SEQ ID NO.1) (peptide 1) was co-immobilized with LN5 (FIG. 14) and COL4 (FIG. 15). The fixed quantity of matrix protein (LN5 and COL4) and the variable quantity of peptide are given on the graph (FIGS. 14 and 15). Peptides 2 and 3 (described in example 1) were used as controls for the experiment. The adhesion tests were carried out with NHK under the same conditions as the experiment given in FIG. 13 (50,000 cells per well). A peptide-free control representing 100% adhesion (LN5 only and COL4 only) was used to allow analysis of the effect of adhesion relating to the presence of the peptide. The results are given as a percentage of this control.
# [5] = test system: A431 cells (skin epitheloids); assay: Cell adhesion test to immobilized peptides, A431; assay type: cell-based; conditions: A431, 0 to 10 micrograms immobilized peptide, 8×10^4 cells per well, 1 hour 37° C., absorbance 570 nm
# Protocol: as §1, with “A431” for “HBL100”
# as §2, §3, §4, §5, §6, §7
# NHKs [6] = assay: Cell adhesion of NHKs to laminin 5 and collagen IV substrates; assay type: cell-based, human; conditions: 0 to 2 micrograms per well, 5×10^4 NHKs per well, 1 hour 37° C.
# Protocol: (A) Diagrammatic representation of laminin 5 and collagen IV in the dermo-epidermal junction (DEJ). (B) Dose-dependent cell adhesion of NHKS to laminin 5 and collagen IV. laminin 5 and collagen IV were fixed to 96-well plates in the quantities given on the abscissa. 5×10^4 NHKs were deposited in each well and plates were incubated at 37° C. for 1 hour. After washing, attached cells were fixed and cell adhesion was measured as described in the methodology section.
# as §8
Substance,cell adhesion to immobilized peptide [1],cell adhesion to immobilized peptide [2],cell adhesion to immobilized peptide [3],effect on adhesion of NHKs to LN5 (co-immobilized) (NHKs [4]),cell adhesion to immobilized peptide [5],adhesion of NHKs to substrate protein (NHKs [6])
"GLTKTYTFRLNE (Human laminin 5) [Peptide 2, control peptide from the gamma 2 chain of laminin 5, position 309-321, reference compound]",did not lead to any adhesion,did not lead to any adhesion,did not lead to any adhesion,do not modify adhesion,did not lead to any adhesion,–
"DVKNLENIRDNL (Human laminin 5) [Peptide 3, control peptide from the terminal carboxy end of the gamma 2 chain of laminin 5, position 1169-1180, reference compound]",did not lead to any adhesion,did not lead to any adhesion,did not lead to any adhesion,do not modify adhesion,did not lead to any adhesion,–
"LN5: laminin 5, dermo-epidermal junction glycoprotein, prepared in the laboratory, used as adhesion substrate",–,–,–,–,–,much better substrate
